The structures appear in SMILES notation.

The target in the assay is T1, human TLR7 (Homo sapiens, UniProt Q9NYK1).
T1 construct: host or cells: HEK-Blue TLR7 cells (engineered human embryonic kidney cells)
T1 sequence (Q9NYK1 27-1049): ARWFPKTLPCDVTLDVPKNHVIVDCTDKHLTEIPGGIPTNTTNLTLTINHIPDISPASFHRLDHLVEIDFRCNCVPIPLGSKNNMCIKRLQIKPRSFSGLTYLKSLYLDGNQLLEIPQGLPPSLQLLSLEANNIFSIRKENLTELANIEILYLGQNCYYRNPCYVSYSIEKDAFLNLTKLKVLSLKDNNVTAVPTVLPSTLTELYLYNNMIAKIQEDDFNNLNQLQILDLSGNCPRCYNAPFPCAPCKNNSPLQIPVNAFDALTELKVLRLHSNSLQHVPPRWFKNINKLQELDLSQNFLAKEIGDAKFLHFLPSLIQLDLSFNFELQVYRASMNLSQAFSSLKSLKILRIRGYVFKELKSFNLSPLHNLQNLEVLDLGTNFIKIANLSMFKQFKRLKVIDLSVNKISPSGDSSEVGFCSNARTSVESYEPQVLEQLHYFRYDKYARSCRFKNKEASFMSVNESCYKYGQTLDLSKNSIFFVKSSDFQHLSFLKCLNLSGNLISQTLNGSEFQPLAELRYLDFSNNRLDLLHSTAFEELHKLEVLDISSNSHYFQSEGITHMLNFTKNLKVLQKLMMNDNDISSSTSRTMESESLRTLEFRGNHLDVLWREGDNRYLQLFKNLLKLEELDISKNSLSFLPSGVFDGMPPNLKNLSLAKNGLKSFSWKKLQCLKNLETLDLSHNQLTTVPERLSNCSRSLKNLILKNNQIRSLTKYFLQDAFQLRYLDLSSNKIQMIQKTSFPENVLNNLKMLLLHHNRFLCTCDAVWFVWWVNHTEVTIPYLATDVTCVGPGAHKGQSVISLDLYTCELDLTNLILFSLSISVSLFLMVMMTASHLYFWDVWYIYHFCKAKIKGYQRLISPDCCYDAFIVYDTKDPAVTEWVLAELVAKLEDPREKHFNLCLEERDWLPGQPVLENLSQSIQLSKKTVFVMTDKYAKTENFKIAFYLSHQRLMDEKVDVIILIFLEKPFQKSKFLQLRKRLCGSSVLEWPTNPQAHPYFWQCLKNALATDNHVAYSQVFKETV
Nature of the assay: Human TLR7 agonist activity assay (HEK-Blue TLR7 SEAP reporter). It is filed as cell-based. To be noted: HEK-Blue TLR7 cells, 18 h treatment, in some instances average of plural assays, read-out: hTLR7 EC50.
Method: Human TLR7 Agonist Activity Assay
HEK-Blue™ TLR7 cells were added to each well of a 384-well tissue-culture plate (15,000 cells per well) and incubated 16-18 h at 37° C., 5% CO2. Compounds (100 nl) were dispensed into wells containing the HEK-Blue™ TLR cells and the treated cells were incubated at 37° C., 5% CO2. After 18 h treatment ten microliters of freshly-prepared Quanti-Blue™ reagent (Invivogen) was added to each well, incubated for 30 min (37° C., 5% CO2) and SEAP levels measured using an Envision plate reader (OD=620 nm).
As to `CCCCNc1nc(N)nc2cnn(Cc3ccc(CN(C)CCCO)cc3OC)c12` [Compound 825], the half-maximal effective concentration (EC50) stood at 43.5 nM.
The value for `CCCCNc1nc(N)nc2cnn(Cc3ccc(Oc4ccc(CNC5CCC5)cc4)cc3OC)c12` [Compound 860] was 19.5 nM.
In the case of `CCC[C@@H](CCO)Nc1nc(N)nc2cnn(Cc3ccc(Cn4ccnc4)cc3OC)c12` [Compound 836], the EC50 is 15.3 nM.
The value for `CCC[C@@H](CCO)Nc1nc(N)nc2cnn(Cc3ccc(CO)cc3OC)c12` [Compound 817] was 27.8 nM; that for `CCCCNc1nc(N)nc2cnn(Cc3ccc(CN4CCN(CCO)CC4)cc3F)c12` [Compound 870] was 1800 nM.
The value for `CCC[C@@H](CCO)Nc1nc(N)nc2cnn(Cc3ccc(CO)cc3)c12` [Compound 874] was 2050 nM; that for `CCCCNc1nc(N)nc2cnn(Cc3ccc(CN4CC(CCO)C4)cc3OC)c12` [Compound 815] was 33.2 nM; that for `CCCCNc1nc(N)nc2cnn(Cc3ccc(CN4CCNCC4)cn3)c12` [Compound 850] was 1620 nM.
As for `CCCCNc1nc(N)nc2cnn(Cc3ccc(CNC(C)(C)C)cc3OC)c12` [Compound 828], the concentration for a half-maximal effect (EC50) came to 98.7 nM.
On to `CCC[C@@H](CCO)Nc1nc(N)nc2cnn(Cc3ccc(CN4CC5CNCC5C4)cc3OC)c12` (some centres unmarked) [Compound 834], for which the half-maximal effective concentration (EC50) is 29.9 nM.
With `CCC[C@@H](CCO)Nc1nc(N)nc2cnn(Cc3ccc(CN4CC(CCO)C4)cc3OC)c12` [Compound 842] the figure was 28.3 nM; with `CCC[C@@H](CCO)Nc1nc(N)nc2cnn(Cc3ccc(CNC4CC(C(C)(C)C)C4)cc3OC)c12` (some centres unmarked) [Compound 866], 19.5 nM; with `CCCCNc1nc(N)nc2cnn(Cc3ccc(CNCC(C)(C)O)cc3OC)c12` [Compound 805], 41.4 nM.
With `CCC[C@@H](CCO)Nc1nc(N)nc2cnn(Cc3ccc(CN4CC(F)(F)C4)cc3OC)c12` [Compound 862] the figure was 11 nM; with `CCC[C@@H](CCO)Nc1nc(N)nc2cnn(Cc3ccc(CN4CCc5cnccc5C4)cc3OC)c12` [Compound 844], 4.6 nM.
As for `CCCCNc1nc(N)nc2cnn(Cc3ccc(Oc4ccc(CNCCO)cc4)cc3OC)c12` [Compound 802], the half-maximal effective concentration (EC50) was determined as 43.8 nM.
With `CCCCNc1nc(N)nc2cnn(Cc3ccc(CO)cc3OC)c12` [Compound 818] the figure was 258 nM.
The value for `CCCCNc1nc(N)nc2cnn(Cc3ccc(CNCC4CC(O)C4)cc3OC)c12` (centres unmarked) [Compound 807] was 2550 nM; that for `CCC[C@@H](CCO)Nc1nc(N)nc2cnn(Cc3ccc(CN4CC(O)C4)cc3)c12` [Compound 878] was 1110 nM; that for `CCC[C@@H](CCNC(C)=O)Nc1nc(N)nc2cnn(Cc3ccc(CNC4(C)CCOCC4)cc3OC)c12` [Compound 847] was 187 nM.
The value for `CCC[C@@H](CCO)Nc1nc(N)nc2cnn(Cc3ccc(CN4CC(O)C4)cc3OC)c12` [Compound 863] was 9.5 nM.
On to `CCCCNc1nc(N)nc2cnn(Cc3ncc(CNC4CCOCC4)cc3OC)c12` [Compound 856], for which the 50% effective concentration (EC50) stood at 1160 nM.
With `CCCCNc1nc(N)nc2cnn(Cc3ccc(CN4CC5CC4CN5)cn3)c12` (centres unmarked) [Compound 852] the figure was 3170 nM.
The value for `CCC[C@@H](CCO)Nc1nc(N)nc2cnn(Cc3ccc(CN4CC5(CNC5)C4)cc3OC)c12` [Compound 835] was 89 nM; that for `CCCCNc1nc(N)nc2cnn(Cc3ccc(CNCCOC)cc3OC)c12` [Compound 826] was 182 nM; that for `CCCCNc1nc(N)nc2cnn(Cc3ccc(CN4CCCNCC4)cc3OC)c12` [Compound 821] was 33.8 nM.
With `CCCCNc1nc(N)nc2cnn(Cc3ccc(CNc4ccc(CCO)cc4)cc3OC)c12` [Compound 822] the figure was 244 nM; with `CCCCNc1nc(N)nc2cnn(Cc3ncc(CNC4CCC4)cc3OC)c12` [Compound 855], 640 nM.
For the molecule `CCCCNc1nc(N)nc2cnn(Cc3ccc(Oc4ccc(CNC5CCOCC5)cc4)cc3OC)c12` [Compound 858], the 50% effective concentration (EC50) is 10.8 nM.
With `CCCCNc1nc(N)nc2cnn(Cc3ccc(Oc4ccc(CNCCOC)cc4)cc3OC)c12` [Compound 808] the figure was 157 nM; with `CCC[C@@H](CCO)Nc1nc(N)nc2cnn(Cc3ccc(CN4CC(OC)C4)cc3OC)c12` [Compound 861], 1.2 nM.
On to `CCCCNc1nc(N)nc2cnn(Cc3ccc(Oc4ccc(CO)cc4)cc3OC)c12` [Compound 803], for which the EC50 was 569 nM.
The value for `CCCCNc1nc(N)nc2cnn(Cc3ccc(Oc4ccc(CN5CCN(CCO)CC5)cc4)cc3OC)c12` [Compound 810] was 245 nM; that for `CCC[C@@H](CCO)Nc1nc(N)nc2cnn(Cc3ccc(CN4CCCNCC4)cc3OC)c12` [Compound 838] was 39.6 nM; that for `CCCCNc1nc(N)nc2cnn(Cc3ccc(CNC4CCC(O)CC4)cc3OC)c12` (centres unmarked) [Compound 806] was 41.4 nM.
The value for `CCCCNc1nc(N)nc2cnn(Cc3ccc(CN4CCN(CCO)CC4)cc3OC)c12` [Compound 823] was 21.5 nM; that for `CCOCCNc1nc(N)nc2cnn(Cc3ccc(CNC4CCC4)cc3OC)c12` [Compound 864] was 216 nM.
On to `CCC[C@@H](CCO)Nc1nc(N)nc2cnn(Cc3ccc(CN4CC(OC(C)C)C4)cc3OC)c12` [Compound 868], for which the half-maximal effective concentration (EC50) is 1.4 nM.
The value for `CCCCNc1nc(N)nc2cnn(Cc3ccc(CN4CCCNCC4)cc3OC)c12` [Compound 845] was 21.2 nM.
For `CCCCNc1nc(N)nc2cnn(Cc3ccc(CN4CCCC4)cn3)c12` [Compound 851], the EC50 amounted to 1770 nM.
Take `CCCCNc1nc(N)nc2cnn(Cc3ccc(CNCCO)cc3OC)c12` [Compound 816]: the EC50 came to 92.5 nM.
With `CCC[C@@H](CCO)Nc1nc(N)nc2cnn(Cc3ccc(CN4C[C@@H]5C[C@H]4CN5)cc3OC)c12` [Compound 843] the figure was 55.9 nM.
The value for `COCCNc1nc(N)nc2cnn(Cc3ccc(CNC4CCC4)cc3OC)c12` [Compound 865] was 959 nM; that for `CCCCNc1nc(N)nc2cnn(Cc3ccc(Oc4ccc(C(C)(C)O)cc4)nc3)c12` [Compound 829] was 1340 nM.
The value for `CCCCNc1nc(N)nc2cnn(Cc3ccc(CNC4CC(O)C4)cc3OC)c12` (centres unmarked) [Compound 811] was 138 nM; that for `CCCCNc1nc(N)nc2cnn(Cc3ccc(Oc4ccc(CN5CCN(C)CC5)cc4)cc3OC)c12` [Compound 809] was 74.5 nM; that for `CCCCNc1nc(N)nc2cnn(Cc3ccc(CN4CCN(CCO)CC4)cn3)c12` [Compound 849] was 2030 nM.
Turning to `CCC[C@@H](CCO)Nc1nc(N)nc2cnn(Cc3ccc(CN4CCN(CCO)CC4)cc3)c12` [Compound 879], the EC50 stood at 370 nM.
The value for `CCCCNc1nc(N)nc2cnn(Cc3ccc(CC#N)cc3OC)c12` [Compound 873] was 253 nM; that for `CCCCNc1nc(N)nc2cnn(Cc3ccc(CNC4CCC4)cc3OC)c12` [Compound 800] was 58.3 nM.
The value for `CCC[C@@H](CCO)Nc1nc(N)nc2cnn(Cc3ccc(CNC4(C)CCOCC4)cc3OC)c12` [Compound 848] was 33 nM; that for `CCC[C@@H](CCO)Nc1nc(N)nc2cnn(Cc3ccc(CNC4CCC4)cc3OC)c12` [Compound 841] was 9.7 nM; that for `CCCCNc1nc(N)nc2cnn(Cc3ccc(CN4CCN(C)CC4)cc3OC)c12` [Compound 827] was 47.6 nM.
